Test results reported in patent EP4790048A1, “S1PR4 REGULATOR COMPOUND FOR AUTOIMMUNE DISEASE TREATMENT AND APPLICATION THEREOF” (Shengyuan Zetong (Shanghai) Pharmaceutical Co., Ltd, priority 2023, dated 2025).
Read-outs that look alike come from different tables or passages of the source.

Legend:
[1] = molecular target: T1, hS1P4 (Homo sapiens, UniProt O95977); assay: Tango β-arrestin recruitment luciferase assay, Tango-hS1P4-CHO; assay type: cell-based
T1 construct: expressed in transfected cells; host or cells: CHO
T1 sequence (O95977 1-384): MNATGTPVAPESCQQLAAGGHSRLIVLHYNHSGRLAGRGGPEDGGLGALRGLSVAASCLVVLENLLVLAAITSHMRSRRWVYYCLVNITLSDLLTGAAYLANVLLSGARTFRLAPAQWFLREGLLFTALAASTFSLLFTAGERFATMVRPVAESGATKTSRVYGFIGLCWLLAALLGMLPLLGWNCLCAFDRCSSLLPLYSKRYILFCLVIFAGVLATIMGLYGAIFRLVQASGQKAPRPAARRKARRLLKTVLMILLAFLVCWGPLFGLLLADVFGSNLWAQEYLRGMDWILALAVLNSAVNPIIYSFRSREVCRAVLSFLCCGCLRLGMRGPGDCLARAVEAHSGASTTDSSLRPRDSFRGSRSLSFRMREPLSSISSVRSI
Summary of the method: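 CHO Tango cells (receptor–V2 tail–TEV/tTA fusion, β-arrestin 2–TEV, UAS-luciferase reporter) plated overnight (20 h) at 37°C, then treated 20 h with compounds, top final 45 µM, 9 five-fold dilutions, triplicates. Luciferase luminescence read; BAF-312 positive control at 1 µM (S1PR1) or 25 µM (S1PR4).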

[2] = molecular target: T2, S1PR3 (Homo sapiens, UniProt Q99500); assay: β-arrestin recruitment, PathHunter CHO-K1-S1PR3 cells; assay type: cell-based; details: mean ± SD
T2 construct: expressed in transfected cells

[3] = molecular target: T3, S1PR5 (Homo sapiens, UniProt Q9H228); assay: FLIPR assay, S1PR5-CHO cell line; assay type: cell-based; details: mean ± SD
T3 construct: expressed in transfected cells

[4] = test system: SKG mice; assay: Curdlan-induced ankylosing spondylitis (AS) model in SKG mice; assay type: in vivo; details: compound 30 3 mg/kg; for peripheral clinical symptom scores: Week 12, compound 67 3 mg/kg intragastric daily, adalimumab 10 mg/kg i.p., P < 0.05 vs model group; for swelling of the wrist and ankle joints / spinal CT imaging scores: compound 67 3 mg/kg; for spinal CT imaging scores: adalimumab 10 mg/kg, P<0.05 vs model group
Description: After adaptive feeding, SKG mice were used for the experiment. Except for 5 mice as the blank control group, the other 20 mice were intraperitoneally injected with Curdlan (3 mg per mouse) at week 0 and week 2 of the experiment to establish an AS mouse model, and were randomly divided into 4 groups: model group, positive control group treated with adalimumab (10 mg/kg), compound 30 group (3 mg/kg), and compound 67 group (3 mg/kg), with 5 mice in each group. Mice in the compound 30 and 67 groups were intragastrically administered compound 30 and 67 daily starting from week 3.3 until sacrifice; the positive control group received intraperitoneal injection of adalimumab injection (first administration at week 3.3, second at week 9). Body weight was measured every week to adjust the dosage.
Clinical symptom observation of the limbs and toes were conducted, and their redness and swelling were scored, with a total score of 16 points (4 points per foot).
• 0 = No swelling • 1 = Mild swelling and redness on the top of the foot • 2 = Severe swelling and redness on the top of the foot • 3 = Severe swelling and redness in the wrist or ankle joint • 4 = Severe swelling in the wrist or ankle joint and toes.
CT scans were performed on mice at Week 13.4 and 14.3 of the experiment to obtain imaging data of the mice's bones and joints. Image WL: 1400; WW: 2000.
• 1. Spine (total 2 points): 1 point for narrowed intervertebral space, 2 points for complete fusion. • 2. Sacroiliac joints (1 point for each side, total 2 points): 0.5 points for blurred and sclerotic articular surface, 0.5 points for narrowed joint space. • 3. Zygapophyseal joints of the spine (1 point for each side, total 2 points): 0.5 points for narrowed joint space, 1 point for complete fusion.
Analysis of variance (ANOVA) was performed using IBM SPSS Statistics software to obtain statistical results of the dataset, with P < 0.05 considered statistically significant.

[5] = test system: BALB/c mice; assay: Imiquimod-induced mouse psoriasis model; assay type: in vivo
Description: The imiquimod-induced mouse psoriasis model is a commonly used model for psoriasis research. This model uses the topical immune modulator imiquimod (IMQ) to induce lesions similar to human psoriasis on the skin of mice.
• Mice: Female BALB/c mice, aged 6-8 weeks. • Imiquimod cream: 5% IMQ cream. • Experimental Procedures • Animal preparation: Mice were acclimated to the laboratory environment for at least one week.
Random grouping: Generally, 5 mice were included in each group. Specifically, the groups were as follows: adalimumab injection group for positive control; compounds 30 and 67 administered by gavage, divided into 3 dosage groups: 0.3, 1, and 3 mg/kg.
The hair on the backs of the mice in each group was shaved with a razor, covering an area of approximately 2 × 3 cm^2.
5% IMQ cream was applied daily to the shaved area on the mouse backs at a dose of 62.5 mg of IMQ cream for 6-7 consecutive days. Skin reactions of the mice were observed after 7 days, including erythema, scaling, and skin thickening.

[6] = S1PR4, Tango-S1PR4-CHO-K1 cells, mean ± SD, read-out: EC50
[7] = β-arrestin recruitment, 20 h drug treatment, top 45 µM, 9 serial 5-fold dilutions, positive control 25 µM BAF-312, read-out: Tango-hS1P4-CHO EC50
[8] = gavage 0.3, 1 and 3 mg/kg, after 7 days of IMQ
[9] = high dose of 3 mg/kg, compared with adalimumab

T2 sequence (Q99500 whole entry, species assumed): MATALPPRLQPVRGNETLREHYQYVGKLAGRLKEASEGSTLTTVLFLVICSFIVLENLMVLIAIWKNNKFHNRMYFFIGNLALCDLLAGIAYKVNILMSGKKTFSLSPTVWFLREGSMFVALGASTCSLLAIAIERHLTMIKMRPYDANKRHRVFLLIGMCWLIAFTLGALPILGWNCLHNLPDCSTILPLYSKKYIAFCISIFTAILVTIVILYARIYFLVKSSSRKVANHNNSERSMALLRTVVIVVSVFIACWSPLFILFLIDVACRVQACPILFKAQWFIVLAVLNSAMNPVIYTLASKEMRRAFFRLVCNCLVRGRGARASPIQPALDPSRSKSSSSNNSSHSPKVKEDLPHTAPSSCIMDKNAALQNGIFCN
T3 sequence (Q9H228 whole entry, species assumed): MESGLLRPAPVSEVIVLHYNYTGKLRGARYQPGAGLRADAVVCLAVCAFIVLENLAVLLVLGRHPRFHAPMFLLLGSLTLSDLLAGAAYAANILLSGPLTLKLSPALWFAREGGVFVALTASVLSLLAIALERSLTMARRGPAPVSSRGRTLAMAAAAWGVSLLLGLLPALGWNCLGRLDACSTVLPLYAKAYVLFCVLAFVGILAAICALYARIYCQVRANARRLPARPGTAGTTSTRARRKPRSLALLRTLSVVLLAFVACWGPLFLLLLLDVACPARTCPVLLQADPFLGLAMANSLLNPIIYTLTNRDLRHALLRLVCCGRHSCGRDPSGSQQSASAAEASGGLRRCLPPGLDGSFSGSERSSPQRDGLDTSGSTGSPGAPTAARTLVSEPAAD

Compound	EC50 [1, 6]	EC50 [1, 7]	EC50 [2]	EC50 ([2]; read-out: EC50)	EC50 [3]	EC50 ([3]; read-out: EC50)	peripheral clinical symptom scores [4]	swelling of the wrist and ankle joints [4]	spinal CT imaging scores [4]	skin reactions (erythema, scaling, skin thickening) [5, 8]	skin reactions (erythema, scaling, skin thickening) [5, 9]
CCc1cc(/C(C)=N/OCc2ccc(-c3ccccc3)c(C)c2)ccc1CN1CC[C@H](C(=O)O)C1 [Compound 30]	9.09 ± 0.67 nM	9.09 nM	no agonist activity	> 10000 nM	no agonist activity	> 10000 nM	significantly lower	significantly reduced swelling of the wrist and ankle joints	significantly lower imaging scores	significant alleviating effects at all concentrations in a dose-dependent manner	therapeutic effects similar to those of adalimumab
CCc1cc(/C(C)=N/OCc2ccc(-c3cnc(F)cn3)c(C)c2)ccc1CN1CC[C@H](C(=O)O)C1 [Compound 67, (S, E)-1-(2-ethyl-4-(1-(((4-(5-fluoropyrazin-2-yl)-3-methylbenzyl)oxy)imino)ethyl)benzyl)pyrrolidine-3-carboxylic acid]	1.8 ± 0.43 nM	1.8 nM	–	> 10000 nM	–	3740 ± 221 nM	significantly lower	significantly reduced swelling of the wrist and ankle joints	significantly lower imaging scores	significant alleviating effects at all concentrations in a dose-dependent manner	therapeutic effects similar to those of adalimumab
